US20060183119A1, “Method for determining predisposition to a physiological reaction in a patient” (UNIVERSITE LAVAL, priority 2002, published 2006)
Like-named read-outs stand apart in the source and are kept apart here.

Experiments:
human UGT1A9*2 = molecular target: T1, human UGT1A9*2 (Homo sapiens, UniProt O60656, C3Y); test: Glucuronidation by microsomes of HEK-293 cells stably expressing UGT1A9*2; details: for Vmax / Km: SN-38 glucuronidation
T1 sequence (O60656 26-530): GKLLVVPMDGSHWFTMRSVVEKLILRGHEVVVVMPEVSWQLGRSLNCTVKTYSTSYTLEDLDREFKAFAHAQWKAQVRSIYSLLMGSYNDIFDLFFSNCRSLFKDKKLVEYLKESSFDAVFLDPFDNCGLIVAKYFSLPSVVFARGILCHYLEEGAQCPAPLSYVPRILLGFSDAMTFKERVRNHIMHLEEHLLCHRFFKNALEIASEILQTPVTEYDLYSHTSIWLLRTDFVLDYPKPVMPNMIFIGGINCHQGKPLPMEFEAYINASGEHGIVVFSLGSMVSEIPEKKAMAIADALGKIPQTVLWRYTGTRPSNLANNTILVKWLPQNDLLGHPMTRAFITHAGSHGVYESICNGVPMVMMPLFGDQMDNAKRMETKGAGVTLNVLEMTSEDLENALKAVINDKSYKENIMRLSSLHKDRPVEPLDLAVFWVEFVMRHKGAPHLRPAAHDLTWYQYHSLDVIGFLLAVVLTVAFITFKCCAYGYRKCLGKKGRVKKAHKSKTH
Method: Microsomal fractions from HEK-293 cells stably expressing human UGT1A9*1, UGT1A9*2 and UGT1A9*3 were used in enzymatic assays. Reactions (100 μl volume) contained 50 mM Tris-HCl, pH 7.3, 10 mM MgCl2, 100 μg/mL phosphatidylcholine, 1 mM UDP-glucuronic acid, 40 to 60 μg of membrane protein. […] Human liver microsome were incubated in the same condition for control. Reaction was stopped by the addition of 200 μL MeOH+1% HCl 2N, followed by centrifugation at 14000 rpm for 10 minutes. Supernatant was filtered through a 0.22 μm filter and 100 μL of water was added. For SN-38 and SN-38-glucuronide detection, 10 μL samples were injected on a liquid chromatographic system coupled to a fluorescence detector. Time-course experiments were realized to determine the linearity of the glucuronidation reaction.
A liquid chromatographic method was developed to quantify SN-38 glucuronidation of UGT cell line-derived microsomes and human liver microsomes. Samples were analyzed using high performance liquid chromatography (Alliance 2695, Waters, Milford, Mass.). […] At a constant flow rate (0.7 ml/min), a linear gradient from 20 to 65% B was run over 3 min, held 0.8 min and a second gradient until 95% of B was run over 2 min and then re-equilibrated to 20% B over 2 min. The effluent from the HPLC system (Alliance 2695) was connected directly to a fluorescence detector (Waters, Milford, Mass.) using an excitation wavelength of […] and an emission of 460 nm. […] Determination of the glucuronidation rates obtained with other substrates was performed as currently known in the art.
Microsomal fractions from HEK293 (40 to 60 μg) were added to a reaction mixture (100 μL) containing 50 mM Tris-HCl, pH 7.3, 10 mM MgCl2, 100 μg/mL phosphatidylcholine and 2 mM UDP-glucuronic acid. […] Commercially available human liver microsomes (Human Cell Culture Center Inc., Laurel, Md.) were incubated in the same conditions for all experiments. Time-course experiments were performed to determine the linearity of the glucuronidation reaction. For the determination of Vmax and Km. HEK293 cells stably expressing UGT1A9 enzymes were incubated in the presence of various concentrations of SN-38 ranging from 0.1 to 200 μM and incubated for 30 min as described above whereas UGT1A7 membranes preparations were incubated for 3 hours. […] Reactions with SN-38 were stopped by the addition of 200 μL MeOH+1% HCl 2N, followed by centrifugation at 14000×g for 10 minutes. The supernatants were filtered through a 0.22 μm membrane and 100 μL of water was added to the filtrate. For the detection of SN-38 and its glucuronide (SN-38G), 10 μL samples were injected in a liquid chromatographic system (HPLC) coupled to fluorescence detector as described below.
A HPLC method was developed to quantify the rates of SN-38 glucuronidation from the various microsomal fractions under study. The HPLC system used was an Alliance 2695 (Waters, Milford, Mass.) equipped with a 50×3.2 mm Colombus C18 column (Phenomenex, Torrance, Calif.). […] Then a second gradient ranging from 65% to 95% solvent B was generated during the following 2 min. Finally, the column was re-equilibrated to 20% solvent B for 2 min. The column was connected to a fluorescence detector model 474 (Waters, Milford, Mass.) and the molecules were excited at a wavelength of 370 nm and an emission of 425 nm.

UGT1A7*5 = molecular target: T2, UGT1A7*5 (Homo sapiens, UniProt Q9HAW7, G115S); test: SN-38 glucuronidation by microsomes of HEK293 cells expressing UGT1A7*5; assay type: in vitro ADME; set-up: key to Function (SN-38G formation versus *1 allele): High: no significant difference in activity compared to *1 allele.; Low: significantly lower SN-38G formation versus *1 allele
T2 construct: expressed in transfected cells
T2 sequence (Q9HAW7 26-530 G115S): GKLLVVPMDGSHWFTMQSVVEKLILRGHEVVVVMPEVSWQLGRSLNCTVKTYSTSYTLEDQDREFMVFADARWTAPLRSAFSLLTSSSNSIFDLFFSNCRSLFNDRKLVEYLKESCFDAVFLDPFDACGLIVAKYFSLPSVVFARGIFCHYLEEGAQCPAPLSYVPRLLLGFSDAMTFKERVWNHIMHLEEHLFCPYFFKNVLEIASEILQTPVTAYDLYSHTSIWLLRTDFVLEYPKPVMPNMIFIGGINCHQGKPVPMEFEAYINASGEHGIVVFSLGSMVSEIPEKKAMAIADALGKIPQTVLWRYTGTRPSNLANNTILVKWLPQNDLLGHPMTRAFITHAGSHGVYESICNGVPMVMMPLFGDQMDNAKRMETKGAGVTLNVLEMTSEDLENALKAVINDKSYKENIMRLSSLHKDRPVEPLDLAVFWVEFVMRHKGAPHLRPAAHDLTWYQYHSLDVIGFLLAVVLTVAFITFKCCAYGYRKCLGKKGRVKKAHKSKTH
Method: Western blot analyses of UGT1A7 and UGT1A9 variants expressed in HEK293 cells were performed on microsomal proteins (10 μg) separated on a 10% SDS-polyacrylamide gel. After transferring the proteins, the membranes were probed with an anti-UGT1A RC-71 polyclonal antibody and with an anti-calnexin antibody. The relative levels of UGT1A9 (a) and UGT1A7 proteins (b) were determined by semi-quantitative densitometric analysis of the Enhanced chemiluminescence (ECL) image. The in vitro SN-38 activity was assessed using microsomal fractions prepared from HEK293 cells expressing the *1 and variant UGT1A9 (c) and UGT1A7 (d) alleles and incubated with 5 μM of SN-38 as described in Materials and Methods.
For the determination of Vmax and Km.

## CCc1c2c(nc3ccc(O)cc13)-c1cc3c(c(=O)n1C2)COC(=O)[C@]3(O)CC [SN-38, 7-ethyl-10-hydroxycamptothecin]
Human UGT1A9*2; 5 μM of SN-38, versus wild type
  effect on conjugation rate of SN-38 (in words): no significant effect
Human UGT1A9*2; 0.1 to 200 μM, mean±SD
  Vmax: 324.38 ± 95.09 pmol/min/mg protein
Human UGT1A9*2; Table 5
  Km: 5.15 ± 1.81 µM
  Vmax: 324.68 ± 95.09
Human UGT1A9*2; read-out: Apparent Km, 0.1 to 200 μM, mean±SD, Lineweaver-Burk
  Km: 5.15 ± 1.81 µM
Human UGT1A9*2; tyrosine at codon 3, versus UGT1A9*1
  increased activity (SN-38 conjugation): 16.7%
UGT1A7*5
  SN-38 glucuronidating activity of the allele (in words): low
UGT1A7*5; in vitro experiments
  Function (SN-38G formation versus *1 allele): Low
UGT1A7*5; range given for *5, *7 and *8 together
  lower rates of SN-38G formation compared to UGT1A7*1: 38-76%
